# From paper PMC6271376 (Molecules, 2013)
# Columns and labels:
# [1] = Pharmacokinetic study in rats following intravenous administration; assay type: in vivo; details: Sprague-Dawley, rat, plasma
# Procedure: Male SD rats weighing from 210 to 240 g were used for the PK study. All animal experiments were performed in accordance with institutional guidelines and were approved by the University Committee on Use and Care of Animals, Shenyang Pharmaceutical University. […] Serial blood samples (0.2 mL) were obtained at 0.08, 0.17, 0.25, 0.5, 0.75, 1, 1.5, 2, 3, 4, 6, 8, 10 and 12 h after intravenous administration. All samples were placed into heparinised tubes. The rat plasma samples were centrifuged at 13,000 rpm for 10 min, and the plasma supernatant was collected. THU was added to the plasma supernatant at a final concentration of 100 µM. The plasma was frozen at −80 °C until analysis.
# [2] = Stability of azacitidine in rat plasma exposed to various storage conditions; details: for Concentration found: n = 3
# Procedure: The selectivity was assessed by comparing the chromatograms of six different batches of blank rat plasma with the corresponding spiked rat plasma. […] The linearity was assessed by weighted (1/x^2) least-squares analysis of six different calibration curves. The LLOQ of the assay was the lowest concentration of the analyte with the recommended precision and accuracy less than 20%. The intra- and inter-day precision (the relative standard deviation, RSD) and accuracy (the relative error, RE) were determined by the analysis of low, medium, and high QC samples (n = 6) on 3 different days. The stability of the QC samples (n = 3) in three complete freeze/thaw cycles (−80 to 20 °C), long-term sample storage (−80 °C for 30 days) and on the bench top (20 °C for 2 h) was assessed. The ready-for-injection stability of the extracted samples in the autosampler rack at 4 °C for 24 h was also evaluated. The analytes were considered stable when the accuracy bias was within ± 20% of the nominal concentration.
# [3] = male SD rats, 2.5 mg/kg, mean ± SD, n = 3
smiles,measurement,setting,value
Nc1ncn([C@@H]2O[C@H](CO)[C@@H](O)[C@H]2O)c(=O)n1 [Azacitidine],half-life,"[1]; male SD rats, single dose 2.5 mg/kg, mean ± SD, n = 3, read-out: t1/2β (elimination half-life) (converted)",30.4 ± 11.9 min
same,Vd,[1]; [3],2.07 ± 0.17 L/kg
same,clearance,[1]; [3],20.9 mL/min/kg
same,AUC(0-inf),"[1]; male, SD rats, single dose 2.5 mg/kg",2000 ng·h/mL
same,Concentration found,"[2]; extracted rat plasma samples, sample rack for 24 h at 4 °C, added 20 ng/mL",23.8 ng/mL
same,Concentration found,"[2]; extracted rat plasma samples, sample rack for 24 h at 4 °C, added 10,000 ng/mL","9,966.3 ng/mL"
same,Concentration found,"[2]; rat plasma, Ambient, 2 h, added 20 ng/mL",24.0 ng/mL
same,Concentration found,"[2]; rat plasma, Ambient, 2 h, added 10,000 ng/mL","10,388.5 ng/mL"
same,Stability (change in azacitidine concentrations),"[2]; rat plasma, all storage conditions of Table 3",No significant changes
same,Concentration found,"[2]; rat plasma, three freeze–thaw cycles, added 20 ng/mL",24.0 ng/mL
same,Concentration found,"[2]; rat plasma, three freeze–thaw cycles, added 10,000 ng/mL","10,073.4 ng/mL"
same,Concentration found,"[2]; rat plasma, −80 °C, 30 days, added 20 ng/mL",24.0 ng/mL
same,Concentration found,"[2]; rat plasma, −80 °C, 30 days, added 10,000 ng/mL","9,519.1 ng/mL"
